Tests used:
Format in all cases: cell-based
[1] = tested on: rat neonatal cardiomyocytes; test: ROS production of rat neonatal cardiomyocytes treated with high glucose; conditions: 25 mM glucose, 25 μM compound
Protocol: Cos-Nox2, Cos-Nox1, human fibroblasts were cultured in DMEM, 10% FBS-supplemented media, human pulmonary artery endothelial cells were cultured in EBM2media containing growth factors (Lonza) and rat neonatal cardiomyocytes were cultured in DMEM/F12 (50/50) media supplemented with 5% horse serum, 100 μM BrdU and Insulin-Transferrin-Selenium (ITS, Gibco).
To evaluate the pre-clinical potential of compounds 11g and 11h, the effects of high levels of glucose, which induce the generation of reactive oxygen species in cardiomyocytes and may contribute to the development of cardiomyopathy in diabetes, were evaluated. […] Furthermore, both compound 11g and compound 11h were able to reduce cardiomyocyte hypertrophy associated with high glucose challenge (FIG. 16).

[2] = target: T1, p47^phox association with Nox2 (cytochrome b558) (Homo sapiens, UniProt P14598); test: Co-immunoprecipitation of Nox2/p47phox in Cos-Nox2 cells; conditions: Cos-Nox2 cells pre-incubated with compound
T1 construct: expressed in transfected cells
T1 sequence (P14598 1-390): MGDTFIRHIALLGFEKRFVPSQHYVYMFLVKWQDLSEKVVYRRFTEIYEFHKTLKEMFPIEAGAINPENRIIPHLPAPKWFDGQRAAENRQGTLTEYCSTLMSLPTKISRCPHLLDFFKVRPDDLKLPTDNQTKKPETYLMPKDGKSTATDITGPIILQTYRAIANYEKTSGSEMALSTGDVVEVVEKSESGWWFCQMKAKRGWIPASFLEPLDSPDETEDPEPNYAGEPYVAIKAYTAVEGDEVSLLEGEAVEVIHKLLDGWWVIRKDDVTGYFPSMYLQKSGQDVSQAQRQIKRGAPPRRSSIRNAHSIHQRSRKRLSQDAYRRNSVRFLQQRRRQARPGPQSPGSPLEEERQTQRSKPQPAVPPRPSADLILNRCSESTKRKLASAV
Protocol: 300 μg of cell homogenates were diluted in 0.3 ml HBSS buffer and incubated with 1.25 μg of α-p47^phox antibody (Santa Cruz Biotechnology). After overnight incubation at 4° C. with constant agitation, 10 μl of Protein G-Agarose slurry were added to each sample to pull-down p47^phox: antibody complex. Beads were washed, boiled, run on PAGE-SDS gels and then blotted on nitrocellulose membrane. Western blot analysis was carried out using antibodies against p47^phox and Nox2. Bands were visualized using Odyssey software from Licor and then quantified using ImageJ software.
To interrogate a mode of Nox2 inhibition, in silico interaction analysis of pre-existing atomic structures was employed. […] To further investigate this type of interaction and inhibition, co-immunoprecipitation was used and p47^phox association with cytochrome b558 in Cos-Nox2 cells.

[3] = target: T2, Nox2 (Homo sapiens, UniProt P04839); test: ROS production of transiently Nox2-transfected Cos cells treated with PMA; conditions: 10 μM compound
T2 construct: expressed in transfected cells
T2 sequence (P04839 2-570 limits assumed): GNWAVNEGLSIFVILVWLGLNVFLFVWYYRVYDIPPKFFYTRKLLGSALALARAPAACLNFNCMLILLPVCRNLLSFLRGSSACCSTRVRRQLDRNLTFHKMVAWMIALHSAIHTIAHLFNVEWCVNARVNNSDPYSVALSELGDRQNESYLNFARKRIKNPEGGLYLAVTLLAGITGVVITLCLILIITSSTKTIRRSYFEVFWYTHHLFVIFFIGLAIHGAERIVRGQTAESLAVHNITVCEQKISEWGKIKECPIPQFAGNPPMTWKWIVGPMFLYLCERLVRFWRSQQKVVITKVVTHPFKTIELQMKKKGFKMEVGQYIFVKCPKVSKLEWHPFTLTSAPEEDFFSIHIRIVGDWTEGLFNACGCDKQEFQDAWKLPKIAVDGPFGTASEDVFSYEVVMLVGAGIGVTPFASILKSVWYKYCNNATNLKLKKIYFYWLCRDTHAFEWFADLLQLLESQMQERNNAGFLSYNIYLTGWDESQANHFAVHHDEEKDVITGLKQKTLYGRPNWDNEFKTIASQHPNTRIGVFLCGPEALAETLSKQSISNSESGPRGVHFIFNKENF
Protocol: Cell transfection was carried out using Lipofectamine LTX and Plus reagent (Invitrogen, Carlsbad, Calif., USA), according to the manufacturer's instructions. COS-22 cells were transiently co-transfected with pcDNA 3.1-hNox1, pCMVsport 6-hNOXA1 and pcDNA3.1-hNoxO1 (COS-Nox1/NOXO1/NOXA1 cells) or with pcDNA3.1/Hygro-hNox4 (COS-Nox4 cells). Cells were used 24 hr after transfection. Adherent cells were harvested by incubating with 0.05% trypsin/EDTA for 5 min at 37° C. Following addition of DMEM/10% FBS to neutralize the trypsin, the cells were pelleted by centrifugation at 1100×g for 5 min at 4° C. and used for the experiments.
Since p47^phox activation is important not only for Nox2 activity but also for Nox1 hybrid system present mainly in human endothelial cells, the effect of compounds 11g and 11h on ROS production of transiently Nox2-transfected (FIG. 13) or Nox1 hybrid system-transfected Cos cells (FIG. 14) treated with phorbol ester (PMA) was evaluated.

Attenuation of PMA-promoted p47phox/Nox2 interaction (co-immunoprecipitation) [2]	PMA-stimulated ROS production, Nox2-transfected Cos cells [3]	Compound	High glucose-dependent ROS production in rat cardiomyocytes [1]
33.45±6.08%		C=C(C)CC1C2c3c(Br)cccc3C(CC2(C)C)N1Cc1cccs1 (racemic) [Compound 11h, (±)-(1S,4R,9S)-5-Bromo-3,3-dimethyl-9-(2-methylallyl)-10-(thiophen-2-ylmethyl)-1,2,3,4-tetrahydro-1,4-(epiminomethano)naphthalene]	ameliorated
34.3±6.07%	inhibited	C=C(C)CC1C2c3c(Br)cccc3C(CC2(C)C)N1CCCCC (racemic) [Compound 11g, (±)-(1S,4R,9S)-5-Bromo-3,3-dimethyl-9-(2-methylallyl-10-pentyl-1,2,3,4-tetrahydro-1,4-(epiminomethano)naphthalene]	ameliorated

From patent publication US10906876B2, “Tetrahydroisoquinolines as selective NADPH oxidase 2 inhibitors” (University of Pittsburgh—Of the Commonwealth System of …, priority 2013, dated 2021)
